Source: US10336762B2 (priority 2017, dated 2019)

Legend:
TNFα = assay: cells; type: cell-based, human; details: Homo sapiens, Monocyte, LPS-stimulated human monocytes, TNFα by TR-FRET; read-out: EC50 TNF
Method: IRAK4 Monocyte TNFα Cell Based Assay Procedure:
The cell suspension was then plated at a density of 5,000 cells/well onto black 384 well Greiner clear bottom plates. Plates were pre-spotted with test compounds and serially diluted in DMSO where 200 nL/well were delivered using the Echo 550 acoustic liquid dispenser (Labcyte®) for a final DMSO concentration of 0.5%. Plated cells were treated with compound for 1 hour at 37° C. Cells were then stimulated with 50 pg/ml of LPS (Sigma) excluding outside columns of plate used for unstimulated cell control wells. Cells were incubated for an additional 4 hours at 37° C. Cells were then spun out of the media and 5 μl of sample were taken and analyzed for total TNFα content using the TR-FRET Human TNFα detection system (CisBio). This system utilizes two labeled antibodies (cryptate and XL665) that bind to two different epitopes of the TNFα molecule and produce FRET signal proportional to the concentration of TNFα in the sample. Detection antibodies are mixed 50:50 and 5 μL were dispensed into each well. Plates were covered with clear seals and incubated at room temp overnight. […] Percent of control was calculated as follows: % Control=100×(RatioSample−Ratio0% stimulation)/(Ratio100% Stimulation−Ratio0% Stimulation) where unstimulated cells (0% stimulation) were the negative control and stimulated cells (100% stimulation) were used as the positive control.

IRAK4 enzyme = IRAK4 enzyme (Homo sapiens (Human), UniProt Q9NWZ3); assay: biochemical; type: biochemical; details: IRAK4 enzyme, TR-FRET, 500 μM ATP
Sequence of IRAK4 enzyme (Q9NWZ3 whole entry): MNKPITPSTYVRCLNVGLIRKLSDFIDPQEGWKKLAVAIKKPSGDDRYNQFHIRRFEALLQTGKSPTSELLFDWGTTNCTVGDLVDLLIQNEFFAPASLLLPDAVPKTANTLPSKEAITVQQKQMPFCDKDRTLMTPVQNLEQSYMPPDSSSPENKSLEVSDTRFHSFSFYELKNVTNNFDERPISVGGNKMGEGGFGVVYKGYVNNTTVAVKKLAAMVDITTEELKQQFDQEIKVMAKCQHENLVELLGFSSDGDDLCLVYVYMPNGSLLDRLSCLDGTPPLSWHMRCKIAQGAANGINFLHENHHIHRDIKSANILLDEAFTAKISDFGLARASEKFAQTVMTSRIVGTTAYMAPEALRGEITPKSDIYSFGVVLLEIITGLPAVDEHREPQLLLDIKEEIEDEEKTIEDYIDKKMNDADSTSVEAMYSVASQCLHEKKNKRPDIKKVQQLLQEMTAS

| Compound | EC50 (TNFα) | IC50 (IRAK4 enzyme) |
| --- | --- | --- |
| CCOc1cc(Nc2cc(-c3ccc4cc(C#N)cnn34)ncc2C(=O)NC[C@@H](F)C(C)(C)O)ccn1 [Example 847, (R)-6-(3-cyanopyrrolo[1,2-b]pyridazin-7-yl)-4-((2-ethoxypyridin-4-yl)amino)-N-(2-fluoro-3-hydroxy-3-methylbutyl)nicotinamide] | 69 nM | < 1 nM |
| CCOc1nccc(Nc2cc(-c3ccc4cc(C#N)cnn34)ncc2C(=O)NC[C@@H](F)C(C)(C)O)n1 [Example 848, (R)-6-(3-cyanopyrrolo[1,2-b]pyridazin-7-yl)-4-((2-ethoxypyrimidin-4-yl)amino)-N-(2-fluoro-3-hydroxy-3-methylbutyl) nicotinamide] | 112 nM | 2 nM |
| CCCOc1cncc(Nc2cc(-c3ccc4cc(C#N)cnn34)ncc2C(=O)NC[C@@H](F)C(C)(C)O)c1 [Example 849, (R)-6-(3-cyanopyrrolo[1,2-b]pyridazin-7-yl)-N-(2-fluoro-3-hydroxy-3-methylbutyl)-4-((5-propoxy-pyridin-3-yl)amino) nicotinamide] | 11 nM | < 1 nM |
| CC(C)(O)[C@H](F)CNC(=O)c1cnc(-c2ccc3cc(C#N)cnn23)cc1Nc1cnc2c(c1)OCCO2 [Example 850, (R)-6-(3-cyanopyrrolo[1,2-b]pyridazin-7-yl)-4-((2,3-dihydro-[1,4]dioxino[2,3-b]pyridin-7-yl)amino)-N-(2-fluoro-3-hydroxy-3-methylbutyl)nicotinamide] | 10 nM | < 1 nM |
| CC(C)Oc1cncc(Nc2cc(-c3ccc4cc(C#N)cnn34)ncc2C(=O)NC[C@@H](F)C(C)(C)O)c1 [Example 851, (R)-6-(3-cyanopyrrolo[1,2-b]pyridazin-7-yl)-N-(2-fluoro-3-hydroxy-3-methylbutyl)-4-((5-isopropoxypyridin-3-yl)amino)nicotinamide] | 12 nM | < 1 nM |
| COc1cc(Nc2cc(-c3ccc4cc(C#N)cnn34)ncc2C(=O)NC[C@@H](F)C(C)(C)O)cnc1OC [Example 853, (R)-6-(3-cyanopyrrolo[1,2-b]pyridazin-7-yl)-4-((5,6-dimethoxypyridin-3-yl)amino)-N-(2-fluoro-3-hydroxy-3-methylbutyl) nicotinamide] | 127 nM | 14 nM |
| CN1CCOc2cc(Nc3cc(-c4ccc5cc(C#N)cnn45)ncc3C(=O)NC[C@@H](F)C(C)(C)O)ccc21 [Example 854, (R)-6-(3-cyanopyrrolo[1,2-b]pyridazin-7-yl)-N-(2-fluoro-3-hydroxy-3-methylbutyl)-4-((4-methyl-3,4-dihydro-2H-benzo[b] [1,4]oxazin-7-yl)amino)nicotinamide] | 10 nM | 1 nM |
| CC(C)(O)[C@H](F)CNC(=O)c1cnc(-c2ccc3cc(C#N)cnn23)cc1Nc1cnc2c(c1)OCCN2 [Example 855, (R)-6-(3-cyanopyrrolo[1,2-b]pyridazin-7-yl)-4-((3,4-dihydro-2H-pyrido[3,2-b][1,4]oxazin-7-yl)amino)-N-(2-fluoro-3-hydroxy-3-methylbutyl)nicotinamide] | 9 nM | < 1 nM |
| CN1CCOc2cc(Nc3cc(-c4ccc5cc(C#N)cnn45)ncc3C(=O)NC[C@@H](F)C(C)(C)O)cnc21 [Example 856, (R)-6-(3-cyanopyrrolo[1,2-b]pyridazin-7-yl)-N-(2-fluoro-3-hydroxy-3-methylbutyl)-4-((4-methyl-3,4-dihydro-2H-pyrido[3,2-b][1,4]oxazin-7-yl)amino)nicotinamide] | 24 nM | 1 nM |
| CC(C)(O)[C@H](F)CNC(=O)c1cnc(-c2ccc3cc(C#N)cnn23)cc1Nc1cncc(OCC(F)(F)F)c1 [Example 857, (R)-6-(3-cyanopyrrolo[1,2-b]pyridazin-7-yl)-N-(2-fluoro-3-hydroxy-3-methylbutyl)-4-((5-(2,2,2-trifluoroethoxy)pyridin-3-yl)amino)nicotinamide] | 9 nM | < 1 nM |
| N#Cc1cnn2c(-c3cc(Nc4cnc5c(c4)OCCO5)c(C(=O)N[C@H]4CC[C@H](NC(=O)C5CC5)CC4)cn3)ccc2c1 [Example 858, 6-(3-cyanopyrrolo[1,2-b]pyridazin-7-yl)-N-((1r,4r)-4-(cyclopropanecarboxamido)cyclohexyl)-4-((2,3-dihydro-[1,4]dioxino[2,3-b]pyridin-7-yl)amino)nicotinamide] | 20 nM | < 1 nM |
| CN1CCOc2cc(Nc3cc(-c4ccc5cc(C#N)cnn45)ncc3C(=O)N[C@H]3CC[C@H](NC(=O)C4CC4)CC3)ccc21 [Example 859, 6-(3-cyanopyrrolo[1,2-b]pyridazin-7-yl)-N-((1r,4r)-4-(cyclopropanecarboxamido)cyclohexyl)-4-((4-methyl-3,4-dihydro-2H-benzo[b][1,4]oxazin-7-yl)amino)nicotinamide] | 89 nM | 3 nM |
| CN1CCOc2cc(Nc3cc(-c4ccc5cc(C#N)cnn45)ncc3C(=O)N[C@H]3CC[C@H](NC(=O)N4CCOCC4)CC3)ccc21 [Example 860, N-((1r,4r)-4-(6-(3-cyano-pyrrolo[1,2-b]pyridazin-7-yl)-4-((4-methyl-3,4-dihydro-2H-benzo[b][1,4]oxazin-7-yl)amino)nicotin-amido)cyclohexyl) morpholine-4-carboxamide] | 31 nM | 2 nM |
| N#Cc1cnn2c(-c3cc(Nc4cnc5c(c4)OCCO5)c(C(=O)N[C@H]4CC[C@H](NC(=O)N5CCOCC5)CC4)cn3)ccc2c1 [Example 861, N-((1r,4r)-4-(6-(3-cyano-pyrrolo[1,2-b]pyridazin-7-yl)-4-((2,3-dihydro-[1,4]dioxino[2,3-b]pyridin-7-yl)amino)nicotinamido)cyclohexyl)morpholine-4-carboxamide] | 16 nM | < 1 nM |
| CC(C)(O)[C@H](F)CNC(=O)c1cnc(-c2ccc3cc(C#N)cnn23)cc1Nc1cnc2c(c1)COCC2 [Example 862, (R)-6-(3-cyanopyrrolo[1,2-b]pyridazin-7-yl)-4-((7,8-dihydro-5H-pyrano[4,3-b]pyridin-3-yl)amino)-N-(2-fluoro-3-hydroxy-3-methylbutyl)nicotinamide] | 46 nM | < 1 nM |
| CC(C)(O)[C@H](F)CNC(=O)c1cnc(-c2ccc3cc(C#N)cnn23)cc1Nc1ccc2c(c1)CNC2 [Example 863, (R)-6-(3-cyanopyrrolo[1,2-b]pyridazin-7-yl)-N-(2-fluoro-3-hydroxy-3-methylbutyl)-4-(isoindolin-5-ylamino)nicotinamide] | 74 nM | < 1 nM |
| CC(C)(O)[C@H](F)CNC(=O)c1cnc(-c2ccc3cc(C#N)cnn23)cc1Nc1ccc2c(c1)CN(C1COC1)C2 [Example 864, (R)-6-(3-cyanopyrrolo[1,2-b]pyridazin-7-yl)-N-(2-fluoro-3-hydroxy-3-methylbutyl)-4-((2-(oxetan-3-yl)isoindolin-5-yl)amino) nicotinamide] | 69 nM | < 1 nM |
| COC(=O)NC1(c2ccc(Nc3cc(-c4ccc5cc(C#N)cnn45)ncc3C(=O)N[C@H]3CC[C@H](NC(=O)C4CC4)CC3)cc2)CC1 [Example 866, methyl (1-(4-((2-(3-cyano-pyrrolo[1,2-b]pyridazin-7-yl)-5-(((1r,4r)-4-(cyclopropanecarboxamido)cyclohexyl)carbamoyl)pyridin-4-yl)amino)phenyl)cyclopropyl)carbamate] | 37 nM | 1 nM |
| [2H]C([2H])([2H])OC(=O)NC[C@H]1C[C@H](Nc2cc(-c3ccc4cc(C#N)cnn34)ncc2C(=O)NC[C@@H](F)C(C)(C)O)C1 [Example 867, methyl-d3 (((1R,3r)-3-((2-(3-cyanopyrrolo[1,2-b]pyridazin-7-yl)-5-(((R)-2-fluoro-3-hydroxy-3-methylbutyl)carbamoyl)pyridin-4-yl)amino)cyclo-butyl)methyl)carbamate] | 6 nM | < 1 nM |
| COC(=O)N1CCN(c2ccc(Nc3cc(-c4ccc5cc(C#N)cnn45)ncc3C(=O)NC[C@@H](F)C(C)(C)O)cn2)CC1 [Example 870, (R)-methyl 4-(5-((2-(3-cyanopyrrolo[1,2-b]pyridazin-7-yl)-5-((2-fluoro-3-hydroxy-3-methylbutyl)carbamoyl)pyridin-4-yl)amino)pyridin-2-yl)piperazine-1-carboxylate] | 81 nM | 1 nM |
| CC(C)(O)[C@H](F)CNC(=O)c1cnc(-c2ccc3cc(C#N)cnn23)cc1Nc1ccc(N2CCN(C3COC3)CC2)nc1 [Example 871, (R)-6-(3-cyanopyrrolo[1,2-b]pyridazin-7-yl)-N-(2-fluoro-3-hydroxy-3-methylbutyl)-4-((6-(4-(oxetan-3-yl)piperazin-1-yl)pyridin-3-yl)amino)nicotinamide] | 51 nM | 1 nM |
| CC(C)(O)[C@H](F)CNC(=O)c1cnc(-c2ccc3cc(C#N)cnn23)cc1Nc1ccc(CNCC(F)F)cc1 [Example 872, (R)-6-(3-cyanopyrrolo[1,2-b]pyridazin-7-yl)-4-((4-(((2,2-difluoroethyl)amino)methyl)phenyl)amino)-N-(2-fluoro-3-hydroxy-3-methylbutyl)nicotinamide] | 14 nM | < 1 nM |
| CC1(C(=O)NC[C@H]2C[C@H](Nc3cc(-c4ccc5cc(C#N)cnn45)ncc3C(=O)NC[C@@H](F)C(C)(C)O)C2)COC1 [Example 873, 6-(3-cyanopyrrolo[1,2-b]pyridazin-7-yl)-N-((R)-2-fluoro-3-hydroxy-3-methylbutyl)-4-(((1r,3R)-3-((3-methyloxetane-3-carboxamido)methyl)cyclobutyl)amino) nicotinamide] | 102 nM | < 1 nM |
| CC(C)(O)[C@H](F)CNC(=O)c1cnc(-c2ccc3cc(C#N)cnn23)cc1Nc1ccc(C(C)(C)N2CCOC2=O)cc1 [Example 874, (R)-6-(3-cyanopyrrolo[1,2-b]pyridazin-7-yl)-N-(2-fluoro-3-hydroxy-3-methylbutyl)-4-((4-(2-(2-oxooxazolidin-3-yl)propan-2-yl)phenyl)amino)nicotinamide] | 13 nM | < 1 nM |
